Assays:
[1] = tested on: alkaline phosphatase (ALP); settings: normalized to GAPDH, 100 μM gallium nitrate
Experimental: The expression values were normalized to the expression of GAPDH. […] The cultures were incubated at first in the absence of the MAC for 3 d; then they were transferred to medium, supplemented with the MAC, and the incubation was continue for additional 3 or 5 d, as outlined. Then the cells were harvested, RNA was extracted and subjected to qRT-PCR for determination of both CA IX and ALP transcripts; the expression of GAPDH served as reference. Data are expressed as mean values±SD for five independent experiments; each experiment was carried out in duplicate (* P<0.01). nd, not detectable.
In parallel, the expression of the gene for the enzyme ALP was determined, likewise by qRT-PCR.
Bone cell like SaOS-2 cells (human osteogenic sarcoma cells) are cultured in McCoy's medium (Biochrom-Seromed), supplemented with 2 mM L-glutamine, 10% or 15% heat-inactivated fetal calf serum (FCS), and 100 units/ml penicillin and 100 μg/ml streptomycin. The cells are incubated in 25-cm^2 flasks or in 6-well plates (surface area 9.46 cm^2; e.g. from Orange Scientifique) in a humidified incubator at 37° C. […]
The quantitative real-time RT [reverse transcription]-PCR (qRT-PCR) technique is applied to determine the effect of the discs on the expression levels of the following genes in SaOS-2 cells. […] After determinations of the Ct values the expression of the respective transcripts are calculated.

[2] = tested on: carbonic anhydrase IX (CA IX); assay: CA IX gene expression in SaOS-2 cells on discs (qRT-PCR); format: cell-based, human; settings: normalized to GAPDH, 100 μM gallium nitrate
Experimental: As a marker for the functional activity of the SaOS-2 cells, growing onto titanium discs, the expression of the two genes encoding for the enzymes carbonic anhydrase IX (CA IX) and alkaline phosphatase (ALP) was determined by quantitative qRT-PCR.
(SEQ ID NO: 8). […] (SEQ ID NO. 10).

SMILES: O=[N+]([O-])[O-].O=[N+]([O-])[O-].O=[N+]([O-])[O-].[Ga+3] [gallium nitrate]
- ALP expression, with Ga, −MAC 0 d [1]: 0.027 ± 0.004
- ALP expression, with Ga, +MAC 5 d ([1]; 3 d −MAC then 5 d +MAC): 0.111 ± 0.010
- CA IX expression, with Ga, −MAC 0 d [2]: 0.24±0.05
- CA IX expression, with Ga, +MAC 5 d ([2]; 3 d −MAC then 5 d +MAC): 0.89±0.11

Reference: patent US20190083679A1, “Amorphous Inorganic Polyphosphate-Calcium-Phosphate And Carbonate Particles As Morphogenetically Active Coatings and Scaffolds” (NanotecMARIN GmbH, priority 2014, published 2019)
